Measured values as given in patent US4565814A, “Pyridazine derivatives having a psychotropic action and compositions” (priority 1983, dated 1986).
Read-outs that look alike come from different tables or passages of the source.

How the values were obtained:
[1] = system: CD1 (Charles River) female mice; experiment: Despair behaviour (Porsolt forced-swim immobility), intraperitoneal; format: in vivo, mouse; settings: Table 8, 1 hour before test, ++ significant (Student test)
Protocol: The principle of this test is as follows: when a mouse is placed in a narrow vessel filled with water, it struggles and then, after 2 to 4 minutes, it becomes immobile and floats on its abdomen, with its back hunched and its back paws tucked under the body, and it only makes the few movements necessary to keep its head above the water. This is the so-called despair reaction. Certain psychotropic drugs, in particular antidepressants, lengthen the time for which the mouse struggles. The following protocol was selected: The products to be studied were administered intraperitoneally 1 hour before the test. For the test, the animals are placed in a narrow vessel (10×10×10 cm) filled with water to a height of 6 cm, the temperature being 24° C. plus or minus 2° C. The animals are left in the water for 6 minutes and the time for which the animal remains immobile between the 2nd and 6th minutes is measured. The activity of the substance is the greater, the shorter this time. Each substance was studied on a batch of 10 mice. The results are the average of at least two experiments.

[2] = system: reserpine-induced ptosis in CD1 (Charles River) female mice; experiment: Antagonism of reserpine-induced ptosis, intraperitoneal; format: in vivo; settings: Mus musculus, ip, i.p., reserpine 2 mg/kg i.v., read 1 hour after reserpine
Protocol: ANTAGONISM OF RESERPINE-INDUCED PTOSIS
This test, which is described by GOURET (Journal de pharmacologie Paris 1973, 4 (1), 105-128), was carried out on CD1 (Charles River) female mice weighing 20 g plus or minus 1 g. Reserpine causes ptosis 1 hour after its intravenous administration; certain antidepressants oppose this ptosis.
The following protocol was selected:
The substances to be studied were administered intraperitoneally. The reserpine is administered intravenously at the same time, at a dose of 2 mg/kg.

[3] = system: CD1 Charles River female mice with unilateral lesion of the striatum; experiment: Rotational behaviour after unilateral 6-hydroxydopamine lesion of the striatum, intraperitoneal; format: in vivo, mouse; settings: for Rotational behaviour, intraperitoneal administration (change of rotations vs control): Table 8, 1 hour after administration; for Rotational behaviour of mice (intraperitoneal administration): Table 9, decrease: minus sign printed at end of the dose line, * p < 0.01, Student test
Protocol: CD1 Charles River female mice weighing from 20 to 24 g first undergo unilateral lesion of the striatum by the stereotaxic injection of 6-hydroxydopamine at a dose of 8 μg per animal. One week after this operation, the product is administered intraperitoneally to groups of 7 mice. The number of rotations is evaluated over 2 minutes, 1 hour after the administration of the product. Rotations on the same side as the lesion are counted as positive and those on the opposite side are counted as negative.

mice = experiment: in vivo; format: in vivo; settings: i.p., mortality noted for 24 hours
Protocol: (§1) The products to be studied were administered intraperitoneally in increasing doses to batches of 10 mice.
(§2) The 50% lethal dose, that is to say the dose causing the […] of 50% of the animals studied, is determined from the results obtained for each of the products studied.

in vivo = format: in vivo; settings: mouse, in vivo, ip; Table 9; i.p.; mortality noted for 24 hours; read-out: Toxicity, intraperitoneal administration, LD50
Protocol: as §1, §2

[4] = Table 8, read-out: Reserpine-induced ptosis, intraperitoneal administration, ED50
[5] = Table 9, read-out: Test for the antagonism of reserpine-induced ptosis, intraperitoneal administration, ED50
[6] = 2 mg/kg i.p., ++ significant (Student test)

Structure (SMILES) | Despair behaviour, intraperitoneal administration (change of immobility time) ([1]; 5 mg/kg i.p.) [%] | ED50 [2, 4] [mg/kg] | ED50 [2, 5] [mg/kg] | Rotational behaviour, intraperitoneal administration (change of rotations vs control) ([3]; 0.125 mg/kg i.p., ++ significant (Student test)) [%] | Rotational behaviour, intraperitoneal administration (change of rotations vs control) [3, 6] [%] | Rotational behaviour of mice (intraperitoneal administration) ([3]; 2 mg/kg i.p.) [%] | Toxicity, intraperitoneal administration, LD50 (mice; Table 8) [mg/kg] | Toxicity, intraperitoneal administration, LD50 (mice; Table 9) [mg/kg] | Rotational behaviour of mice (intraperitoneal administration) ([3]; 0.5 mg/kg i.p.) [%] | LD50 at 24 h (in vivo) [mg/kg] | Rotational behaviour, intraperitoneal administration (change of rotations vs control) ([3]; 0.1 mg/kg i.p., ++ significant (Student test)) [%] | Despair behaviour, intraperitoneal administration (change of immobility time) ([1]; 10 mg/kg i.p.) [%] | Rotational behaviour, intraperitoneal administration (change of rotations vs control) ([3]; 3 mg/kg i.p., n.s.: not significant) [%]
Cc1cc(-c2ccccc2)nnc1NCCN1CCOCC1 [Minaprine] | -31 | 5 | 5 | -53 | -82 | -82 | 63 | 63 | – | – | – | – | –
N#Cc1cc(-c2ccsc2)nnc1NCCN1CCOCC1 [SR 95 274 A] | – | – | 2.6 | – | – | -82 | – | – | -60 | > 300 | – | – | –
Cl.Cl.N#Cc1cc(-c2ccccc2)nnc1NCCN1CCOCC1 [SR 95191, 3-(2-Morpholinoethylamino)-4-cyano-6-phenylpyridazine dihydrochloride] | -26 | 3.9 | – | – | -107 | – | – | – | – | – | -60 | – | –
CN(C)CCCN1c2ccccc2CCc2ccccc21 [iminaprine] | – | 2.4 | – | – | – | – | – | – | – | – | – | -38 | -6
